From patent US11999727B2 (Tango Therapeutics, Inc., priority 2020, dated 2024)

Key:
PRMT5 [1] = molecular target: T1, PRMT5 (Homo sapiens, UniProt O14744); test: PRMT5 biochemical IC50 assay with MTA as cofactor; settings: PRMT5, MTA as cofactor; read-out: MTA IC50
T1 construct: purchased Viva (custom protein)

PRMT5 [2] = molecular target: T1, PRMT5; test: PRMT5 biochemical IC50 assay with no cofactor; settings: PRMT5, no cofactor
Text: Table 1 indicates IC50 values (μM) against PRMT5 for exemplary compounds in the presence of SAM as cofactor, with no cofactor, and with MTA as cofactor, respectively (columns 4-6). […] Ki values can be calculated from the IC50 values as described in the Examples section. As detailed in the Examples section, for the assay performed in the presence of SAM, IC50=Ki×1.5 (Ki=IC50/1.5).

[3] = system: HAP1 MTAP-intact cell line; test: SDMA in-cell western assay, HAP1 MTAP-intact; assay type: cell-based; settings: Homo sapiens, HAP1, SDMA in-cell western, HAP1 MTAP-intact; read-out: MTAP HAP1 intact IC50
How it was run: (§1)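 Compounds were tested in HAP1 cells differing only in MTAP status (endogenous expression versus null). Cellular SDMA levels were then measured by in-cell western, giving an IC50 in each background.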

[4] = system: HAP1 MTAP-deleted cell line; test: SDMA in-cell western assay, HAP1 MTAP-deleted; assay type: cell-based; settings: for IC50: Homo sapiens, HAP1, SDMA in-cell western, HAP1 MTAP-deleted; for MTAP intact/deleted ratio: IC50 ratio HAP1 MTAP-intact / HAP1 MTAP-deleted, SDMA in-cell western
How it was run: as §1

PRMT5 [5] = molecular target: T1, PRMT5; test: PRMT5 biochemical IC50 assay with SAM as cofactor; settings: PRMT5, SAM as cofactor; read-out: SAM IC50
[6] = system: HAP1 MTAP-deleted cell line; test: Viability assay, MTAP-deleted cell line; assay type: cell-based; settings: Homo sapiens, read-out: HAP1 MTAP deleted viability
Text: Table 1 additionally indicates IC50 values in a viability assay for the MTAP-deleted cell line (column 10), indicating the effect of treatment with compound on cell survival.

[7] = HAP1, viability assay, MTAP-deleted cell line
[8] = read-out: No Cofactor/ rel IC50
[9] = read-out: HAP 1 MTAP deleted IC50

T1 sequence (O14744 whole entry): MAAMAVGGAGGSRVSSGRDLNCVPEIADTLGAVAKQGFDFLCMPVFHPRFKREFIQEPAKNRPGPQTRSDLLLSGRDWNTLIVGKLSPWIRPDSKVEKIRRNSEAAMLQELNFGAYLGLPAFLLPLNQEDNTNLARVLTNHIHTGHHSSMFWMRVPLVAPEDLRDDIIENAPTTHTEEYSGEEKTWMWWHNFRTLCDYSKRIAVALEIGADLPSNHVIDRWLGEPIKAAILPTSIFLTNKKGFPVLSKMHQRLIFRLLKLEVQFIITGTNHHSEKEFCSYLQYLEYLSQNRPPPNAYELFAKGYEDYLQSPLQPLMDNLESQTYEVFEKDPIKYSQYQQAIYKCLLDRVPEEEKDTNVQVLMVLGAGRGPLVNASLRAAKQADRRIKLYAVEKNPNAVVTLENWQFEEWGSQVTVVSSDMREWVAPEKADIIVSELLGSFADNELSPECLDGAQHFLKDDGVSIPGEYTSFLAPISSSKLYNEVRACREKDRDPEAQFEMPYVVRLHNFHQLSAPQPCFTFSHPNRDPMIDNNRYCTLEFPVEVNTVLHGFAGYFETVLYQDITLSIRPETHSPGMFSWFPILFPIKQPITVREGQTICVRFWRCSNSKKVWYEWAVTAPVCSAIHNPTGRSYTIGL
T1 sequence (Q9BQA1 whole entry partner): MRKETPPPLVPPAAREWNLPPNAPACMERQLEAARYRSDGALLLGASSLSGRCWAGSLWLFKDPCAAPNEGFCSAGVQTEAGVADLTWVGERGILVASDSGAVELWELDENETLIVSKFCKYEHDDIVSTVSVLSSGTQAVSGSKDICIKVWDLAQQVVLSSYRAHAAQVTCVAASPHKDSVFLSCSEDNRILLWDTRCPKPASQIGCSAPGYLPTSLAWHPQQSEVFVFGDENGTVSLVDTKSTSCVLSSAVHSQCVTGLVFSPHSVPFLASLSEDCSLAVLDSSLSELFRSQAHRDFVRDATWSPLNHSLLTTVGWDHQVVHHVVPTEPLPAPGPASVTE

Structure (SMILES)	IC50 (PRMT5 [1]) [nM]	IC50 (PRMT5 [2]; read-out: No Cofactor/rel IC50) [nM]	IC50 [3] [nM]	IC50 ([4]; read-out: HAP1 MTAP deleted IC50) [nM]	MTAP intact/deleted ratio [4]	IC50 (PRMT5 [5]) [nM]	IC50 [6, 7] [nM]	IC50 (PRMT5 [2]; [8]) [nM]	IC50 [4, 9] [nM]	IC50 ([6]; HAP1, viability, HAP1 MTAP-deleted cell line) [nM]
Cc1cc(NC(=O)C(=O)N2CC(C)CC(C)C2c2ccccc2)cnc1N (mixture of isomers) [Compound 314, N-(6-amino-5-methyl-3-pyridyl)-2-(3,5-dimethyl-2-phenyl-1-piperidyl)-2-oxo-acetamide]	50 to 500	50 to 500	> 1000	100 to 1000	A (an IC50 ratio greater than or equal to 10 fold)	> 500	1000 to 10000	–	–	–
CCc1cc(NC(=O)C(=O)N2C[C@@H](C)CC[C@@H]2c2ccc3sc(CC(C)N(C)C)nc3c2)cnc1N (mixture of isomers) [Compound 1345, N-(6-amino-5-ethylpyridin-3-yl)-2-((2R,5S)-2-(2-(2-(dimethylamino)propyl)benzo[d]thiazol-5-yl)-5-methylpiperidin-1-yl)-2-oxoacetamide]	< 50	–	< 100	–	A (an IC50 ratio greater than or equal to 10 fold)	50 to 500	–	< 50	< 100	< 1000
Cc1cncc(NC(=O)C(=O)N2C[C@H](C)CC[C@H]2c2cccc(C)c2)c1 (racemic) [Compound 8, rac-2-[(2R,5S)-5-methyl-2-(m-tolyl)-1-piperidyl]-N-(5-methyl-3-pyridyl)-2-oxo-acetamide]	50 to 500	–	> 1000	–	C (an IC50 ratio of less than 3 fold)	> 500	> 10000	> 500	> 1000	–
Cc1cncc(NC(=O)C(=O)N2C[C@H](C)CC[C@H]2c2cccc(Cl)c2)c1 (racemic) [Compound 13, 2-[(2R,5S)-2-(3-chlorophenyl)-5-methyl-1-piperidyl]-N-(5-methyl-3-pyridyl)-2-oxo-acetamide]	50 to 500	–	> 1000	–	C (an IC50 ratio of less than 3 fold)	> 500	> 10000	> 500	> 1000	–
Cc1cncc(NC(=O)C(=O)N2C[C@H](C)CC[C@H]2c2ccnc(C)c2)c1 (racemic) [Compound 14, 2-[(2S,5R)-5-methyl-2-(2-methyl-4-pyridyl)-1-piperidyl]-N-(5-methyl-3-pyridyl)-2-oxo-acetamide]	50 to 500	–	> 1000	–	C (an IC50 ratio of less than 3 fold)	50 to 500	> 10000	> 500	> 1000	–
COc1cccc([C@@H]2CC[C@@H](C)CN2C(=O)C(=O)Nc2cncc(C)c2)c1 (racemic) [Compound 28, rac-2-((2R,5S)-2-(3-methoxyphenyl)-5-methylpiperidin-1-yl)-N-(5-methylpyridin-3-yl)-2-oxoacetamide]	50 to 500	–	> 1000	–	C (an IC50 ratio of less than 3 fold)	50 to 500	> 10000	50 to 500	> 1000	–
Cc1cccc(C2CCCCN2C(=O)C(=O)Nc2cnc(N)c(C)c2)c1 (racemic) [Compound 31, N-(6-Amino-5-methyl-3-pyridyl)-2-[2-(m-tolyl)-1-piperidyl]-2-oxo-acetamide]	< 50	–	> 1000	–	A (an IC50 ratio greater than or equal to 10 fold)	50 to 500	> 10000	50 to 500	100 to 1000	–
Cc1cc(NC(=O)C(=O)N2CCCCC2c2ccncc2)cnc1N (racemic) [Compound 36, N-(6-Amino-5-methyl-3-pyridyl)-2-oxo-2-[2-(4-pyridyl)-1-piperidyl]acetamide]	< 50	–	> 1000	–	A (an IC50 ratio greater than or equal to 10 fold)	50 to 500	> 10000	50 to 500	100 to 1000	–
CNC(=O)c1cccc([C@H]2CC[C@H](C)CN2C(=O)C(=O)Nc2cncc(C)c2)c1 (racemic) [Compound 48, N-methyl-3-[(2R,5S)-5-methyl-1-[2-[(5-methyl-3-pyridyl)amino]-2-oxo-acetyl]-2-piperidyl]benzamide]	50 to 500	–	> 1000	–	C (an IC50 ratio of less than 3 fold)	50 to 500	> 10000	50 to 500	> 1000	–
Cc1cc(NC(=O)C(=O)N2CCCCC2c2ccccc2)cnc1N (racemic) [Compound 53, N-(6-Amino-5-methyl-3-pyridyl)-2-oxo-2-(2-phenyl-1-piperidyl)acetamide]	< 50	–	> 1000	–	A (an IC50 ratio greater than or equal to 10 fold)	50 to 500	> 10000	50 to 500	100 to 1000	–
Cc1cc(NC(=O)C(=O)N2CC(C)(C)CCC2c2ccccc2)cnc1N (racemic) [Compound 56, N-(6-amino-5-methylpyridin-3-yl)-2-(5,5-dimethyl-2-phenylpiperidin-1-yl)-2-oxoacetamide]	50 to 500	–	100 to 1000	–	B (an IC50 ratio greater than or equal to 3 fold but lower than 10 fold)	50 to 500	1000 to 10000	50 to 500	< 100	–
Cc1cncc(NC(=O)C(=O)N2C[C@@H](C)CC[C@@H]2c2cccs2)c1 (racemic) [Compound 60, rac-2-((2R,5S)-5-methyl-2-(thiophen-2-yl)piperidin-1-yl)-N-(5-methylpyridin-3-yl)-2-oxoacetamide]	50 to 500	–	> 1000	–	C (an IC50 ratio of less than 3 fold)	> 500	> 10000	> 500	> 1000	–
Cc1cc(NC(=O)C(=O)N2C[C@H](C)CC[C@@H]2c2ccnn2C)cnc1N (racemic) [Compound 66, rac-N-(6-amino-5-methylpyridin-3-yl)-2-((2R,5R)-5-methyl-2-(1-methyl-1H-pyrazol-5-yl)piperidin-1-yl)-2-oxoacetamide]	< 50	–	> 1000	–	A (an IC50 ratio greater than or equal to 10 fold)	50 to 500	> 10000	50 to 500	100 to 1000	–
Cc1cncc(NC(=O)C(=O)N2C[C@H](C)CC[C@H]2c2cccc(F)c2)c1 (racemic) [Compound 70, rac-2-[(2S,5R)-2-(3-fluorophenyl)-5-methyl-1-piperidyl]-N-(5-methyl-3-pyridyl)-2-oxo-acetamide]	50 to 500	–	> 1000	–	C (an IC50 ratio of less than 3 fold)	> 500	> 10000	> 500	> 1000	–
C[C@@H]1CC[C@H](c2ccnn2C)N(C(=O)C(=O)Nc2cncc(C(N)=O)c2)C1 (racemic) [Compound 72, 5-(2-(5-methyl-2-(1-methyl-1H-pyrazol-5-yl)piperidin-1-yl)-2-oxoacetamido)nicotinamide]	50 to 500	–	> 1000	–	A (an IC50 ratio greater than or equal to 10 fold)	50 to 500	> 10000	50 to 500	100 to 1000	–
NC(=O)c1cncc(NC(=O)C(=O)N2C[C@@H]3CC[C@@H](C3)[C@@H]2c2cccs2)c1 (racemic) [Compound 79, 5-[[2-oxo-2-[(1S,4S,5R)-4-(2-thienyl)-3-azabicyclo[3.2.1]octan-3-yl]acetyl]amino]pyridine-3-carboxamide]	50 to 500	–	> 1000	–	A (an IC50 ratio greater than or equal to 10 fold)	50 to 500	> 10000	> 500	100 to 1000	–
Cc1cncc(NC(=O)C(=O)N2C[C@H](C)CC[C@H]2c2ccc3c(c2)CCCC3)c1 (racemic) [Compound 80, N-(5-methyl-3-pyridyl)-2-[(2S,5R)-5-methyl-2-tetralin-6-yl-1-piperidyl]-2-oxo-acetamide]	50 to 500	–	> 1000	–	C (an IC50 ratio of less than 3 fold)	> 500	> 10000	> 500	> 1000	–
Cc1cncc(NC(=O)C(=O)N2C[C@@H](C)CC[C@@H]2c2cccs2)c1 (single isomer, unassigned) [Compound 76]	> 500	–	> 1000	–	–	> 500	> 10000	> 500	–	–
